The test relates to U2OS_Bim cells. In words: Apoptosis inhibition assay (Bim-induced apoptosis, cell viability by ATP level). The format is cell-based. Particulars: U2OS_Bim cells; estimated (*Est.) / preliminary results; numbering of Tables 4a/4b; read-out: EC50. In a few lines: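 Apoptosis was triggered by doxycycline (0.1 μg/mL) induction of Bim, one hour after compound addition to U2OS_Bim cells. Survival was measured after 24 h from cellular ATP (CellTiter-Glo), relative to DMSO, with zVAD at 20 μM as rescue control. Data are duplicate means, some estimated from preliminary results.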

Structures are written as SMILES. pEC50: −log10 of the molar value.

For orientation: pEC50 means the negative decadic logarithm of the EC50, by convention in mol/L. For the compound `Cc1cc(-c2cc(F)c(=O)n(Cc3ccc4c(c3)OCO4)c2)nc(S(=O)(=O)CCCN(c2ccccc2)C2CC2)n1` [Compound 378], the negative-log EC50 (pEC50) is 6.00 to 9.00.

Take `Cc1cc(-c2cc(F)c(=O)n(Cc3ccc4nnn(C)c4c3)c2)nc(S(=O)(=O)CCCN(c2ccccc2)C2CCC2)n1` [Compound 379]: the pEC50 was 6.00 to 9.00.

`Cc1cc(-c2cc(F)c(=O)n(Cc3ccc4nnn(C)c4c3)c2)nc(S(=O)(=O)CCCN(c2ccccc2)C(C)(C)C)n1` [Compound 380]: the pEC50 is 6.00 to 9.00.

`Cc1cc(-c2cc(F)c(=O)n(Cc3ccc4nnn(C)c4c3)c2)nc(S(=O)(=O)CCCN(c2ccccc2)C2CC2)n1` [Compound 381]: the negative logarithm of the EC50 (pEC50) was 6.00 to 9.00. Turning to `Cc1cc(-c2cc(F)c(=O)n(Cc3ccc4c(c3)OCO4)c2)nc(S(=O)(=O)CCCC(=O)N(C(C)(C)C)C(C)(C)C)n1` [Compound 382], the negative logarithm of the EC50 (pEC50) was 6.00 to 9.00. Take `Cc1cc(-c2cc(F)c(=O)n(Cc3ccc4c(c3)OCO4)c2)nc(S(=O)(=O)CCC(OCc2ccccc2F)c2ccccn2)n1` (centres unmarked) [Compound 383]: the pEC50 is 6.00 to 9.00. Turning to `Cc1cc(-c2cc(F)c(=O)n(Cc3ccc4c(c3)OCO4)c2)nc(S(=O)(=O)CCC(OCc2ccccc2F)c2cccnc2)n1` (centres unmarked) [Compound 384], the negative logarithm of the EC50 (pEC50) was 6.00 to 9.00. As to `Cc1cc(-c2cc(F)c(=O)n(Cc3ccc4c(c3)OCO4)c2)nc(S(=O)(=O)CCC(OCc2ccccc2F)c2ccncc2)n1` (centres unmarked) [Compound 385], the negative logarithm of the EC50 (pEC50) is 6.00 to 9.00. In the case of `Cc1cc(-c2cc(F)c(=O)n(Cc3ccc4c(c3)OCO4)c2)nc(S(=O)(=O)CCC(OCc2ccccc2F)c2cccn2C)n1` (centres unmarked) [Compound 386], the pEC50 was 6.00 to 9.00. In the case of `Cc1cc(-c2cc(F)c(=O)n(Cc3ccc4c(c3)OCO4)c2)nc(S(=O)(=O)CCC(OCc2ccccc2F)c2cc3ccccc3n2C)n1` (centres unmarked) [Compound 387] it was 6.00 to 9.00; in that of `Cc1cc(-c2cc(F)c(=O)n(Cc3ccc4c(c3)OCO4)c2)nc(S(=O)(=O)CCC(OCc2ccccc2F)c2ccco2)n1` (centres unmarked) [Compound 388], 6.00 to 9.00.

Regarding `Cc1cc(-c2cc(F)c(=O)n(Cc3ccc4c(c3)OCO4)c2)nc(S(=O)(=O)CCC(OCc2ccccc2F)c2cccs2)n1` (centres unmarked) [Compound 389], the pEC50 is 6.00 to 9.00. With `Cc1cc(-c2cc(F)c(=O)n(Cc3ccc4c(c3)OCO4)c2)nc(S(=O)(=O)CCC(OCc2ccccc2F)c2cncs2)n1` (centres unmarked) [Compound 390], the pEC50 is 6.00 to 9.00. In the case of `Cc1cc(-c2cc(F)c(=O)n(Cc3ccc4c(c3)OCO4)c2)nc(S(=O)(=O)CCC(OCc2ccccc2F)c2ccc3ncccc3c2)n1` (centres unmarked) [Compound 391] it was 6.00 to 9.00. With `Cc1cc(-c2cc(F)c(=O)n(Cc3ccc4c(c3)OCO4)c2)nc(S(=O)(=O)CCC(OCc2ccccc2F)c2ccc3ccn(C)c3c2)n1` (centres unmarked) [Compound 392], the negative logarithm of the EC50 (pEC50) is 6.00 to 9.00. In the case of `Cc1cc(-c2cc(F)c(=O)n(Cc3ccc4c(c3)OCO4)c2)nc(S(=O)(=O)CCC(OCc2ccccc2F)c2ccc3ncn(C)c3c2)n1` (centres unmarked) [Compound 393] it was 6.00 to 9.00. For the compound `Cc1cc(-c2cc(F)c(=O)n(Cc3ccc4c(c3)OCO4)c2)nc(S(=O)(=O)CCC(OCc2ccccc2F)c2ccc3ccoc3c2)n1` (centres unmarked) [Compound 394], the negative logarithm of the EC50 (pEC50) was 6.00 to 9.00. Regarding `Cc1cc(-c2cc(F)c(=O)n(Cc3ccc4c(c3)OCO4)c2)nc(S(=O)(=O)CCC(OCc2ccccc2F)c2ccc3ncoc3c2)n1` (centres unmarked) [Compound 395], the pEC50 was 6.00 to 9.00. Then `Cc1cc(-c2cc(F)c(=O)n(Cc3ccc4c(c3)OCO4)c2)nc(S(=O)(=O)CCC(OCc2ccccc2F)c2ccc3ncsc3c2)n1` (centres unmarked) [Compound 396], with 6.00 to 9.00; and `Cc1cc(-c2cc(F)c(=O)n(Cc3ccc4c(c3)OCO4)c2)nc(S(=O)(=O)CCC(OCc2ccccc2F)C2CCCCC2)n1` (centres unmarked) [Compound 397], with 6.00 to 9.00; and `Cc1cc(-c2cc(F)c(=O)n(Cc3ccc4c(c3)OCO4)c2)nc(S(=O)(=O)CCC(OCc2ccccc2F)C2CCCCN2C)n1` (centres unmarked) [Compound 398], with 6.00 to 9.00. Regarding `Cc1cc(-c2cc(F)c(=O)n(Cc3ccc4c(c3)OCO4)c2)nc(S(=O)(=O)CCC(OCc2ccccc2F)C2CCCOC2)n1` (centres unmarked) [Compound 399], the negative-log EC50 (pEC50) was 6.00 to 9.00.

On to `Cc1cc(-c2cc(F)c(=O)n(Cc3ccc4c(c3)OCO4)c2)nc(S(=O)(=O)CCC(OCc2ccccc2F)C(C)(C)C)n1` (centres unmarked) [Compound 400], for which the negative-log EC50 (pEC50) is 6.00 to 9.00.

Consider `Cc1cc(-c2cc(F)c(=O)n(Cc3ccc4c(c3)OCO4)c2)nc(S(=O)(=O)CCC(OCc2ccncc2)c2ccccc2)n1` (centres unmarked) [Compound 401], for which the pEC50 is 6.00 to 9.00. For `Cc1cc(-c2cc(F)c(=O)n(Cc3ccc4c(c3)OCO4)c2)nc(S(=O)(=O)CCC(OCc2ccncc2)c2ccccc2)n1` (centres unmarked) [Compound 402], the negative logarithm of the EC50 (pEC50) was 6.00 to 9.00.

As to `Cc1cc(-c2cc(F)c(=O)n(Cc3ccc4c(c3)OCO4)c2)nc(S(=O)(=O)CCC(OCc2cccn2C)c2ccccc2)n1` (centres unmarked) [Compound 403], the negative logarithm of the EC50 (pEC50) was 6.00 to 9.00.

As to `Cc1cc(-c2cc(F)c(=O)n(Cc3ccc4c(c3)OCO4)c2)nc(S(=O)(=O)CCC(OCc2cncn2C)c2ccccc2)n1` (centres unmarked) [Compound 404], the negative logarithm of the EC50 (pEC50) was 6.00 to 9.00. `Cc1cc(-c2cc(F)c(=O)n(Cc3ccc4c(c3)OCO4)c2)nc(S(=O)(=O)CCC(OCc2cccs2)c2ccccc2)n1` (centres unmarked) [Compound 405]: the pEC50 is 6.00 to 9.00. Consider `Cc1cc(-c2cc(F)c(=O)n(Cc3ccc4c(c3)OCO4)c2)nc(S(=O)(=O)CCC(OCc2cncs2)c2ccccc2)n1` (centres unmarked) [Compound 406], for which the pEC50 is 6.00 to 9.00. For `Cc1cc(-c2cc(F)c(=O)n(Cc3ccc4c(c3)OCO4)c2)nc(S(=O)(=O)CCC(OCc2ccco2)c2ccccc2)n1` (centres unmarked) [Compound 407], the pEC50 is 6.00 to 9.00. Then `Cc1cc(-c2cc(F)c(=O)n(Cc3ccc4c(c3)OCO4)c2)nc(S(=O)(=O)CCC(OCc2cnco2)c2ccccc2)n1` (centres unmarked) [Compound 408], with 6.00 to 9.00; and `Cc1cc(-c2cc(F)c(=O)n(Cc3ccc4c(c3)OCO4)c2)nc(S(=O)(=O)CCC(OCC2CCCCC2)c2ccccc2)n1` (centres unmarked) [Compound 409], with 6.00 to 9.00.

Take `Cc1cc(-c2cc(F)c(=O)n(Cc3ccc4c(c3)OCO4)c2)nc(S(=O)(=O)CCC(OCC2CCOCC2)c2ccccc2)n1` (centres unmarked) [Compound 410]: the pEC50 was 6.00 to 9.00. On to `Cc1cc(-c2cc(F)c(=O)n(Cc3ccc4c(c3)OCO4)c2)nc(S(=O)(=O)CCC(OCC2CCN(C)CC2)c2ccccc2)n1` (centres unmarked) [Compound 411], for which the pEC50 was 6.00 to 9.00. For the compound `Cc1cc(-c2cc(F)c(=O)n(Cc3ccc4c(c3)OCO4)c2)nc(S(=O)(=O)CCC(OCC2CCCC2)c2ccccc2)n1` (centres unmarked) [Compound 412], the pEC50 was 6.00 to 9.00. Regarding `Cc1cc(-c2cc(F)c(=O)n(Cc3ccc4c(c3)OCO4)c2)nc(S(=O)(=O)CCC(OCC2CCNC2)c2ccccc2)n1` (centres unmarked) [Compound 413], the pEC50 is 6.00 to 9.00. With `Cc1cc(-c2cc(F)c(=O)n(Cc3ccc4c(c3)OCO4)c2)nc(S(=O)(=O)CCC(OCC2CCOC2)c2ccccc2)n1` (centres unmarked) [Compound 414], the pEC50 is 6.00 to 9.00. For `Cc1cc(-c2cc(F)c(=O)n(Cc3ccc4c(c3)OCO4)c2)nc(S(=O)(=O)CCC(OCC2CCC2)c2ccccc2)n1` (centres unmarked) [Compound 415], the pEC50 is 6.00 to 9.00. In the case of `Cc1cc(-c2cc(F)c(=O)n(Cc3ccc4c(c3)OCO4)c2)nc(S(=O)(=O)CCC(OCC2CN(C)C2)c2ccccc2)n1` (centres unmarked) [Compound 416] it was 6.00 to 9.00; in that of `Cc1cc(-c2cc(F)c(=O)n(Cc3ccc4c(c3)OCO4)c2)nc(S(=O)(=O)CCC(OCC2COC2)c2ccccc2)n1` (centres unmarked) [Compound 417], 6.00 to 9.00; in that of `Cc1cc(-c2cc(F)c(=O)n(Cc3ccc4c(c3)OCO4)c2)nc(S(=O)(=O)CCC(OCC2CC2)c2ccccc2)n1` (centres unmarked) [Compound 418], 6.00 to 9.00. On to `Cc1cc(-c2cc(F)c(=O)n(Cc3ccc4c(c3)OCO4)c2)nc(S(=O)(=O)CCC(OCC2CO2)c2ccccc2)n1` (centres unmarked) [Compound 419], for which the negative-log EC50 (pEC50) was 6.00 to 9.00. With `Cc1cc(-c2cc(F)c(=O)n(Cc3ccc4c(c3)OCO4)c2)nc(S(=O)(=O)CCC(OCC2CN2C)c2ccccc2)n1` (centres unmarked) [Compound 420], the negative-log EC50 (pEC50) is 6.00 to 9.00. Take `Cc1cc(-c2cc(F)c(=O)n(Cc3ccc4c(c3)OCO4)c2)nc(S(=O)(=O)CCC(OCC(C)(C)C)c2ccccc2)n1` (centres unmarked) [Compound 421]: the pEC50 is 6.00 to 9.00.

Source of the values: patent publication US11725000B2, “Apoptosis inhibitors” (National Institute of Biological Sciences, Beijing, priority 2017, dated 2023).
